Results on two molecules are retold here after patent publication US4879220A (priority 1986, dated 1989).

One assay has as its target T1, glucose transporter (Homo sapiens, UniProt P11166).
T1 construct: intact human erythrocytes labeled with the glucose transporter-specific probe (glucose-GAP); endogenous in cells; host or cells: human erythrocytes
T1 sequence (P11166 1-492): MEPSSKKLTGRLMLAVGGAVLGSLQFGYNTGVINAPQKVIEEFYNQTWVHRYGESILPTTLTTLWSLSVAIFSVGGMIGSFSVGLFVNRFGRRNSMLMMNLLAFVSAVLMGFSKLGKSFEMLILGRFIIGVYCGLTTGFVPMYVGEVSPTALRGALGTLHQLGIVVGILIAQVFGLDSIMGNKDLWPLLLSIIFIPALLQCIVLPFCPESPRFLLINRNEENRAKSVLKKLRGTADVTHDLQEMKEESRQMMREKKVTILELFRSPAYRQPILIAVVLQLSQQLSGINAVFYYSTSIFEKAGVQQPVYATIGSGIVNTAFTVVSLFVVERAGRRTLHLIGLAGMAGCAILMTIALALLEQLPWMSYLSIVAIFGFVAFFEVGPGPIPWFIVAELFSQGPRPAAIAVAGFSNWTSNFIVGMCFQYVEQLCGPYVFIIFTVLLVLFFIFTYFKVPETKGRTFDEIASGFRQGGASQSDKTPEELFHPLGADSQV
The settings on record: glucose-glucose transporter complex; Sogin and Hinkle; read-out: dissociation constant; cited from earlier work.

In assay [1] the test system is human foreskin fibroblasts. Kind of assay: Morphology and attachment of cultured fibroblasts on exposure to probe or ligand. It counts as cell-based. On the procedure:
Human foreskin fibroblasts were cultured to subconfluency on glass discs placed in culture dishes using Dulbecco's modified Eagle's medium (Gibco Laboratories, Grand Island, NY, U.S.A.). For labeling with glucose-GAP, glass discs with attached fibroblasts were removed from the culture dishes and washed twice with HBS. The cells were then exposed to fresh HBS (experimental) or HBS containing 400 mM glucose or 0.4 uM cytochalasin B (controls) for 5 min at room temperature. […] Cytochem. […] The discs were then placed in a drop of HBS and irradiated on ice as described above for erythrocytes. For labeling with ouabain-GAP cells grown in culture dishes were washed twice with HBS and exposed to HBS containing 400 mM glucose (experimental) or HBS containing 400 mM glucose plus 2 mM ouabain (control) for 15 min at 37° C. An equal volume of ouabain-GAP was then added followed by incubation for 30 min in the dark at room temperature. At this point, the presence of ouabain or ouabain-GAP caused the cells to detach from the substrate. The cells were recovered and unbound probe was removed by centrifugation in HBS. Cells were resuspended in fresh HBS and irradiated for 15 min in a water-jacketed cell at 4° C. using the light source described above.

In the next assay the target is ATPase. The settings on record: ouabain-ATPase complex; Erdmann and Hasse; read-out: dissociation constant; cited from earlier work.

Turning to `OC[C@H]1OC(O)[C@H](O)[C@@H](O)[C@@H]1O` (stereo partly drawn) [glucose], the Kd on glucose transporter is 50 mM.
For the molecule `C[C@@H]1O[C@@H](O[C@H]2C[C@@H](O)[C@]3(CO)[C@H]4[C@H](O)C[C@]5(C)[C@@H](C6=CC(=O)OC6)CC[C@]5(O)[C@@H]4CC[C@]3(O)C2)[C@H](O)[C@H](O)[C@H]1O` [ouabain], the “morphological response of fibroblasts” value in assay [1] is “caused the cells to lift from the substrate and take on a rounded morphology”. Also, the Kd at ATPase is 2.8 nM.
